Measurements from ChEMBL document CHEMBL3351422, “Discovery of N-substituted 7-azaindoline derivatives as potent, orally available M1 and M4 muscarinic acetylcholine receptors selective agonists” (Bioorg Med Chem Lett, 2014).

Assays:
[1] = target: Substance-P receptor (Homo sapiens) (UniProt P25103); assay: Inhibition of human NK1 receptor at 3 uM by radioligand binding assay
[2] = target: Adenosine receptor A2a (Homo sapiens) (UniProt P29274); assay: Inhibition of human adenosine A2A receptor at 3 uM by radioligand binding assay
[3] = target: Neuronal acetylcholine receptor subunit alpha-7 (Rattus norvegicus) (UniProt Q05941); assay: Inhibition of rat nAChR alpha7 at 3 uM by methyllycaconitine binding assay
Rattus norvegicus [4] = species: Rattus norvegicus; assay: Inhibition of rat GABAA central type receptor muscimol binding site at 3 uM by radioligand binding assay
[5] = Half life in monkey at 0.25 mg/kg, iv and 2.5 mg/kg, po; assay type: ADME, organism-based, Macaca mulatta; details: rhesus monkey, in vivo
Rattus norvegicus [6] = species: Rattus norvegicus; assay: Inhibition of rat GABAA central type receptor flunitrazepam binding site at 3 uM by radioligand binding assay
[7] = target: T1, Muscarinic acetylcholine receptor M1 (Homo sapiens) (UniProt P11229); assay: Intrinsic activity at muscarinic M1 receptor (unknown origin) by calcium mobilization assay; assay type: functional
T1 sequence (whole entry): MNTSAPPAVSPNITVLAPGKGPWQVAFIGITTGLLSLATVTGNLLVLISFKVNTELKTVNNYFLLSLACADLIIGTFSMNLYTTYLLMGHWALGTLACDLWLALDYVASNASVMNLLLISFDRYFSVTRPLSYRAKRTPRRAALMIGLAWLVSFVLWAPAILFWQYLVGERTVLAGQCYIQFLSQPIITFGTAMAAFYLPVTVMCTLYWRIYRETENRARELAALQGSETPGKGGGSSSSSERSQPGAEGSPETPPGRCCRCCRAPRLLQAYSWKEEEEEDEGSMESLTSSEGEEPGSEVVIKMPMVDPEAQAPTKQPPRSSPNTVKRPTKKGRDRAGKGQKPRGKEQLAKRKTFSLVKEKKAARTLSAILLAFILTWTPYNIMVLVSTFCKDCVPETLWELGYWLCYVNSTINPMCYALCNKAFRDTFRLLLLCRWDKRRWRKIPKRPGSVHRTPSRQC

[8] = target: Phosphodiesterase 4 (Homo sapiens) (UniProt P27815+Q08499+Q07343+Q08493); assay: Inhibition of human PDE4 at 3 uM by radioligand binding assay; assay type: protein assay
[9] = target: Neuronal acetylcholine receptor; alpha4/beta2 (Rattus norvegicus) (UniProt P09483+P12390); assay: Displacement of [3H]cytisine from rat alpha4beta2 nAChR; assay type: protein-complex assay; details: concentration not given here
[10] = target: Endothelin-1 receptor (Homo sapiens) (UniProt P25101); assay: Inhibition of human ETA receptor at 3 uM by radioligand binding assay
[11] = target: T2, Muscarinic acetylcholine receptor M5 (Homo sapiens) (UniProt P08912); assay: Agonist activity at muscarinic M5 receptor (unknown origin) at 10 uM by calcium mobilization assay; assay type: functional
T2 sequence (whole entry): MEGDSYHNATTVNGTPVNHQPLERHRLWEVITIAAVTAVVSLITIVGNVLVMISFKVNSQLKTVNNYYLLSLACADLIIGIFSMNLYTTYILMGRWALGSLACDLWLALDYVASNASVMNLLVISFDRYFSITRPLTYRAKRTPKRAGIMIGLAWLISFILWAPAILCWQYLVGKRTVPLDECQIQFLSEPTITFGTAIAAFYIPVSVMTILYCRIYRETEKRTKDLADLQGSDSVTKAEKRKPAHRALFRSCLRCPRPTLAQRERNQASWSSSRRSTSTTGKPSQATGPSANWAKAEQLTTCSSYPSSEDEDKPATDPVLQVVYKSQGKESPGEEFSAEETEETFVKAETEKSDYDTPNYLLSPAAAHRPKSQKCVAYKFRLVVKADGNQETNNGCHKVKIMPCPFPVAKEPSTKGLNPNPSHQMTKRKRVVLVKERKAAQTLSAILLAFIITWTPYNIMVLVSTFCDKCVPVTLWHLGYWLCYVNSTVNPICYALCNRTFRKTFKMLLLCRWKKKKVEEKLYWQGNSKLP

[12] = target: T3, Muscarinic acetylcholine receptor M2 (Homo sapiens) (UniProt P08172); assay: Agonist activity at muscarinic M2 receptor (unknown origin) at 0.3 uM by calcium mobilization assay; assay type: functional
T3 sequence (whole entry): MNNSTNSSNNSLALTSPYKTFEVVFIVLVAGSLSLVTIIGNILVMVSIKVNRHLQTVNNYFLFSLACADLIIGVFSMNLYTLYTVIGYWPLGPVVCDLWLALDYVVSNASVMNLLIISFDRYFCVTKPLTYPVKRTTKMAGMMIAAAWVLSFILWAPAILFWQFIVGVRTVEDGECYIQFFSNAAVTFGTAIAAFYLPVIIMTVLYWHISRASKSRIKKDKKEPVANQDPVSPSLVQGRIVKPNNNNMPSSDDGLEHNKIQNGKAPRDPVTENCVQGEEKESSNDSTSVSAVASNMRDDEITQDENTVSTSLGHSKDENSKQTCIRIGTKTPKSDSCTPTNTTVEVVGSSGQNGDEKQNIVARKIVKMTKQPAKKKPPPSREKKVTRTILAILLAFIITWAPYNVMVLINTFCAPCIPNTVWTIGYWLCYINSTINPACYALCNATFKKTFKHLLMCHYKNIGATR

Rattus norvegicus [13] = species: Rattus norvegicus; assay: Displacement of [125I]alpha-bungarotoxin from rat nicotinic acetylcholine receptor at 3 uM by radioligand binding assay
[14] = target: T1, Muscarinic acetylcholine receptor M1 (Homo sapiens); assay: Agonist activity at muscarinic M1 receptor (unknown origin) at 0.3 uM by calcium mobilization assay; assay type: functional
[15] = Oral bioavailability in rat at 2.5 mg/kg; assay type: ADME, organism-based; details: in vivo
[16] = target: Muscarinic acetylcholine receptor M3 (Homo sapiens) (UniProt P20309); assay: Agonist activity at muscarinic M3 receptor (unknown origin) at 0.3 uM by calcium mobilization assay; assay type: functional
Homo sapiens = species: Homo sapiens; assay: Inhibition of human nicotinic acetylcholine receptor at 3 uM by radioligand binding assay

Muscarinic acetylcholine receptor M3 (Homo sapiens), sequence (P20309 whole entry, looked up): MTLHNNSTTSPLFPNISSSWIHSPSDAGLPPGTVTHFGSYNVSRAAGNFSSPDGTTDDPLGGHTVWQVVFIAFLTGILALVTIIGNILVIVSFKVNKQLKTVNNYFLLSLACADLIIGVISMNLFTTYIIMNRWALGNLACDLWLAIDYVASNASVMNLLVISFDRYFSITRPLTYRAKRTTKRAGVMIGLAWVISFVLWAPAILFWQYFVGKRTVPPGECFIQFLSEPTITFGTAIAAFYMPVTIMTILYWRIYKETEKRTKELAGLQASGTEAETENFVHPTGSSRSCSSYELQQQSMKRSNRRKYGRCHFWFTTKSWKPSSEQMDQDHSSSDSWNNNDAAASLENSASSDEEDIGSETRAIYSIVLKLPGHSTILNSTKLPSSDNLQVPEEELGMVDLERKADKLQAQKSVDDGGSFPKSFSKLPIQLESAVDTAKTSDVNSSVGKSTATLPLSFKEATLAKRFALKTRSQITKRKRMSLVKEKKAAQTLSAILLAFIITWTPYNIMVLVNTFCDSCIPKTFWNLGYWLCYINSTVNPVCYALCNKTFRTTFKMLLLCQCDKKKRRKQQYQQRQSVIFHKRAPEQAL
Substance-P receptor (Homo sapiens), sequence (P25103 whole entry): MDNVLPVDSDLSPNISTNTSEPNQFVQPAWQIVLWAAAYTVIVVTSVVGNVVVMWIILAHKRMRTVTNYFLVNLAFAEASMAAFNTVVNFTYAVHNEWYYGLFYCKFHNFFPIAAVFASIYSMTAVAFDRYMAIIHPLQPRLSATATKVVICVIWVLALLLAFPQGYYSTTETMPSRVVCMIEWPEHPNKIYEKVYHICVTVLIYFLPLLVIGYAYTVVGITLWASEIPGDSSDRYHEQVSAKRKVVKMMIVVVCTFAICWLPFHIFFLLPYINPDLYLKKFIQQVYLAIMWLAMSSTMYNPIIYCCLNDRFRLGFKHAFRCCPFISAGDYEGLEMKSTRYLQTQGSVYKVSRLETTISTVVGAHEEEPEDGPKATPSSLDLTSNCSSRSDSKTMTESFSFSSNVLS
Adenosine receptor A2a (Homo sapiens), sequence (P29274 whole entry): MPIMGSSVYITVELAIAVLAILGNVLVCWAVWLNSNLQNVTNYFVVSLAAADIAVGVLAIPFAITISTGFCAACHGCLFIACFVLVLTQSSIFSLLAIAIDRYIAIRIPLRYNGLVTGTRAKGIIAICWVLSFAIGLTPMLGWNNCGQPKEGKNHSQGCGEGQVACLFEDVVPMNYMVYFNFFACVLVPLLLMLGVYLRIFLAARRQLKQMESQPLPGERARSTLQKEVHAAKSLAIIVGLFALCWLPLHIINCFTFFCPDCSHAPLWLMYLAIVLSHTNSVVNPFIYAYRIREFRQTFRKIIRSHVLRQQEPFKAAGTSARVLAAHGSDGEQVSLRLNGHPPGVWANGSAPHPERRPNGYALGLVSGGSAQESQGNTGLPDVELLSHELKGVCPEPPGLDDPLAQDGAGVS
Endothelin-1 receptor (Homo sapiens), sequence (P25101 whole entry): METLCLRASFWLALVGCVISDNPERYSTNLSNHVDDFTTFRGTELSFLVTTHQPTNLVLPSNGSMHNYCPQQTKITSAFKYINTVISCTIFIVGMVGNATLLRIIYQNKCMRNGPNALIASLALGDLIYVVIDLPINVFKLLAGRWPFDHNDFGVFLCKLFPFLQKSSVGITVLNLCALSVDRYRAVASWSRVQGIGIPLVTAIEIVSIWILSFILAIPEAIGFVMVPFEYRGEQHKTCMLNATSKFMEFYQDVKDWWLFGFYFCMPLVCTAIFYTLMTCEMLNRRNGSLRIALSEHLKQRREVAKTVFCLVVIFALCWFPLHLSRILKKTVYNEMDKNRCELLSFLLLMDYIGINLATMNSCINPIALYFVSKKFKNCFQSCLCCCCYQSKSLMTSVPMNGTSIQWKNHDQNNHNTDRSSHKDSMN
Neuronal acetylcholine receptor subunit alpha-7 (Rattus norvegicus), sequence (Q05941 whole entry): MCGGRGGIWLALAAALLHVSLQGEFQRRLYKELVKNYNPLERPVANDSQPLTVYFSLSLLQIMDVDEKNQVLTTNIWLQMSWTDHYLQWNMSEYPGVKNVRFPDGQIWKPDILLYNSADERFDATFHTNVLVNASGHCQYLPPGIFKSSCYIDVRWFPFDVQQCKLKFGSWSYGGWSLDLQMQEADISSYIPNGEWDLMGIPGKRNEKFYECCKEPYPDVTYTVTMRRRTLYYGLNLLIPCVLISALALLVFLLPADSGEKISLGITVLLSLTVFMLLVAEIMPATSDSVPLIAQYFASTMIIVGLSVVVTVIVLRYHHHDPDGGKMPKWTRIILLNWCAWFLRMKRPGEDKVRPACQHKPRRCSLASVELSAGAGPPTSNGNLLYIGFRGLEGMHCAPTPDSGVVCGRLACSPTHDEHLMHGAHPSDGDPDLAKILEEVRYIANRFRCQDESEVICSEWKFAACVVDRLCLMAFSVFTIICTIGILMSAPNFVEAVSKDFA

## CCOC(=O)N1CCC(CN2CCC3(CC2)CN(C(=O)N(C)C)c2ncccc23)CC1.O=C(O)/C=C/C(=O)O
[1]
  inhibition: 2%
[2]
  inhibition: 7%
[3]
  inhibition: 13%
Rattus norvegicus [4]
  inhibition: 2%
[5]
  half-life: 4.76 h
Rattus norvegicus [6]
  inhibition: -5%
[7]
  Intrinsic activity: 76%
[8]
  inhibition: -5%
[9]
  inhibition: 11%
[10]
  inhibition: 10%
[11]
  Activity: 11%
[12]
  Activity: 10%
Rattus norvegicus [13]
  inhibition: 7%
[14]
  Activity: 76%
[15]
  bioavailability: 51.1%
[16]
  Activity: 2%
Homo sapiens
  inhibition: 9%
